Tests used:
[1] = test system: AKT kinase activity in high HER-2 (SKBr3) cells; assay: AKT kinase activity after immunoprecipitation (GSK-1 substrate, 32-P ATP) in SKBr3 cells; format: cell-based, human; conditions: 100 nM
Experimental: (§1) Lysates were resolved by SDS-PAGE, transferred onto Immobilon PVDF membranes, blocked in 5% nonfat milk and probed with antibodies to AKT or […] phosphorylated AKT (phospho-AKT) from Upstate. Following incubation with HRP-conjugated secondary antibodies, proteins were detected using chemiluminescnce (Amersham). AKT kinase activity was assessed following immunopreciptation by a standard kinase assay with the recombinant AKT substrate protein […] and 32-P labelled ATP. AKT is a key kinase in tumor cells.

[2] = test system: HER-2, AKT and phospho-AKT in BT-474 xenografts; assay: Western blot of HER-2, AKT and phospho-AKT in BT-474 breast carcinoma xenografts; format: in vivo, Swiss nu/nu mice; conditions: 50 mg/kg, intraperitoneally
Experimental: BT-474 breast tumor cells were implanted subcutaneously on the flank of Swiss nu/nu mice and allowed to become established to a diameter of 5 mm. Animals were treated intraperitoneally with optimal doses of CNF-101 (17-AAG) and tumors removed at the indicated times thereafter. Tumor tissue was snap-frozen at the time of removal. For analysis, tissues were rapidly thawed, lysed and assaysed for HER-2, AKT and phospho-AKT by Western blotting.

[3] = test system: cyclin D1, cyclin D3, cdk4, AKT, Raf-1 in BT-474 cells; assay: Immunoblot of protein expression in BT-474 (HER-2+++) cells; format: cell-based, human; conditions: 50 nM or 500 nM
Experimental: (§2) Levels of mitotic cyclin expression, HER-2 expression, AKT expression and Raf1 expression in MCF-7 (HER-2 negative) or BT-474 (HER-2+++) cell lines treated with CNF-101 (17-AAG) were assessed using immunoblot analysis. Immunoblot analysis of lysates from cells treated with either 50 nM or 500 nM CNF-101 (17-AAG) were analyzed by Western blot using anti-cyclin D1, anti-cyclin D3, anti-cyclin cdk4, anti-AKT or anti-Raf1 antibodies. All antibodies were obtained from Santa Cruz Biotechnology (Santa Cruz, Calif., USA). Treated cells were harvested, washed with PBS and lysed in NP40 lysis buffer (50 mM Tris pH7.4, 1% NP40,150 mM NaCl, 40 mM NaF. 1 mM Na3VO4, 1 mM phenylmethylsulfonylfluoride, and 10 μg/ml each of leupeptin, aprotinin and soybean trypsin inhibitor) for 30 min on ice. Lysates were centrifuged at 15,000×g for 10 min and protein concentration determined by bicinchoninic acid protein assay (Pierce). Equal amounts of total protein were resolved by SDS-PAGE and transferred onto Immobilon PVDF membranes (Millipore) by electroblotting. Blots were blocked overnight in 5% nonfat milk in TBS-T (0.1% Tween-20 TBS, 10 mM Tris pH 7.4, 150 mM NaCl) at 4° C. and subsequently probed with either anti-HER-2, anti-cylin D1, anti-cyclin D3, anti cdk4, anti-AKT or anti-Raf1 antibodies. Following incubation with HRP-conjugated secondary antibodies, proteins were detected by chemiluminescence (Amersham).

[4] = test system: human cancer cell lines BT-474, SKBR-3, SKOV-3, MCF-Her2, MCF-7, MDA-468, MDA-231, T47-D, MDA435; assay: Antiproliferative effect on cancer cell lines expressing different amounts of HER-2 (ethidium bromide nuclei staining, flow cytometry); format: cell-based
Experimental: Human cancer cell lines BT-474, SKBR-3, SKOV-3, MCF-Her2, MCF-7, MDA-468, MDA-231, T47-D, and MDA435 were obtained from the American Type Culture Collection (“ATCC;” Manassas, Va., USA). Cell lines were maintained in […] medium, supplemented with 5% fetal calf serum (BRL), 2 mM glutamine, and 50 U/ml each of penicillin and streptomycin, at 37° C. in 5% CO2.
Cells were treated for 24 hours with CNF-101 (17-AAG) at concentrations of 1 to 1000 nM. Following treatment, the nuclei were stained with ethidium bromide and analyzed by flow cytometry. Nuclei were isolated for flow cytometry assays, stained with ethidium bromide and analyzed using a Becton Dickinson fluorescence-activated cell sorter. Statistical data was obtained using Multicycle program software.
Those cell lines expressing the highest levels of HER-2 were the most sensitive to CNF-101 (17-AAG) (FIG. 1).

[5] = test system: AKT kinase activity in HER-2-low MCF-7 line; assay: AKT kinase activity after immunoprecipitation (GSK-1 substrate, 32-P ATP) in MCF-7 cells; format: cell-based, human; conditions: ten times 100 nM
Experimental: as §1, with “Cells were treated with 1 uM CNF-101 (17-AAG) for 24 hrs, washed, harvested and lysed in NP-40. Lysates” for “Lysates”

[6] = test system: AKT and phospho-AKT in HER-2+++ and HER-2- cells; assay: Western blot of AKT and phospho-AKT in HER-2+++ and HER-2- cells; format: cell-based, human; conditions: 1 uM, 24 hrs
Experimental: as §1, with “Cells were treated with 1 uM CNF-101 (17-AAG) for 24 hrs, washed, harvested and lysed in NP-40. Lysates” for “Lysates”

[7] = test system: cyclin D1, cyclin D3, cdk4, AKT, Raf-1 in MCF-7 cells; assay: Immunoblot of protein expression in MCF-7 (HER-2 negative) cells; format: cell-based, human; conditions: 50 nM or 500 nM
Experimental: as §2

[8] = test system: AKT and phospho-AKT in BT-474, SKBR-3, U87, MCF-7, MDA-468 cells; assay: Western blot of AKT and phospho-AKT in a panel of cell lines; format: cell-based, human
Experimental: Cells were treated with 1 uM CNF-101 (17-AAG) for 24 hrs, washed, harvested and lysed in NP-40. Lysates were resolved by SDS-PAGE, transferred onto Immobilon PVDF membranes, blocked in 5% nonfat milk and probed with antibodies to AKT or […] phosphorylated AKT (phospho-AKT) from Upstate. Following incubation with HRP-conjugated secondary antibodies, proteins were detected using chemiluminescnce (Amersham). AKT is a key kinase in tumor cells.

[9] = HER-2 overexpressing cells (BT-474)
[10] = HER low expressing cells (MCF-7)
[11] = 1 uM, 24 hrs, panel of cell lines

C=CCNC1=C2C[C@@H](C)C[C@H](OC)[C@H](O)[C@@H](C)/C=C(\C)[C@H](OC(N)=O)[C@@H](OC)/C=C\C=C(/C)C(=O)NC(=CC1=O)C2=O [CNF-101 (17-AAG), 17-allylamino-17-demethoxygeldanamycin]
time to complete loss of AKT activity [1]: ≤ 3 h | AKT protein levels in xenograft [2]: remained constant | HER-2 protein levels in xenograft [2]: declined | phosphorylated ("active") AKT protein in xenograft [2]: declined rapidly | cyclin D1 protein level ([3]; BT-474): rapid decrease | cyclin D3 protein level ([3]; BT-474): rapid decrease | Raf-1 (HSP90 client protein) level ([3]; BT-474, 0, 4, 12, 24 hours): degradation | AKT protein level [3, 9]: not affected | cdk4 protein level [3, 9]: not affected | growth arrest ([4]; 24 hours, 1 to 1000 nM, all cell lines tested (FIG. 1)): caused growth arrest in all the cell lines tested | difference in sensitivity between congenic pair ([4]; MCF-7 vs. MCF-7/HER-2): 10 fold | sensitivity of high HER-2 lines versus low HER-2 lines ([4]; high HER-2: BT-474, SKBR-3, SKOV-3, MDA435, low HER-2: MDA-468, MDA-231, T47D): markedly more sensitive | time to cause even partial loss of AKT kinase activity [5]: 12 h | AKT protein level [6]: does not cause significant loss of the protein | phospho-AKT level [6]: disappears from the treated cells | AKT protein level [7, 10]: not affected | cdk4 protein level [7, 10]: not affected | decrease in cyclin D1 protein level ([7]; MCF-7 (low HER-2)): not seen | decrease in cyclin D3 protein level ([7]; MCF-7 (low HER-2)): not seen | Raf-1 (HSP90 client protein) level ([7]; MCF-7, 0, 4, 12, 24 hours): degradation | AKT protein level [8, 11]: does not cause significant loss of the protein | phospho-AKT level [8, 11]: disappears from the treated cells | AKT activity ([8]; 1 uM, multiple cell lines): causes loss of AKT activity in multiple cell lines | loss of AKT activity in high HER-2 lines versus low HER-2 lines ([8]; high HER-2: BT-474, SKBR-3, low HER-2: U87, MCF-7, MDA-468): much more rapid and complete loss of AKT activity
